Test results taken from ChEMBL document CHEMBL3639084, “Heterocyclic analogs of propargyl-linked inhibitors of dihydrofolate reductase” (2014).

Target: T1, Dihydrofolate reductase (Homo sapiens, UniProt P00374)
T1 sequence (P00374 whole entry): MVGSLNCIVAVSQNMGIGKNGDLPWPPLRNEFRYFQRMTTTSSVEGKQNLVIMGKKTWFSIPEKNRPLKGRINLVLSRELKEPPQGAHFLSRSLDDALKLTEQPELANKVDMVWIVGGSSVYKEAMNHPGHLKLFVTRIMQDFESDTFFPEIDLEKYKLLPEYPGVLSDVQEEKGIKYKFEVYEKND
Test: Spectrophotometric Enzyme Assay: Compounds were evaluated in spectrophotometric enzyme assays using ChDHFR-TS and hDHFR. Inhibition constants (IC50) were measured (see Table 4). The lead compound, X, has an inhibition constant of 38 nM and modest selectivity (8-fold).

## COc1cc(-c2ccccc2C)ccc1C(C)C#Cc1c(C)nc(N)nc1N (stereo unspecified)
  IC50: 2770 nM
